The text below walks through data of paper PMC2732992 (Proteins, 2009).

Molecules are shown by their SMILES.

Test [1] has as its system GluR2o / GluR3o expressed in insect cells. Particulars: cited from earlier work; for Affinity for GluR2o higher than for GluR3o: receptors expressed in insect cells.
Another test has as its target GluR2o S1S2 domain (Rattus norvegicus, UniProt P19491, DEL528-650/S652T/V651G). The test can be described thus: Inhibition of [3H]AMPA binding to GluR2o S1S2. Particulars: GluR2 S1S2 vs GluR3 S1S2, inhibition of [3H]AMPA binding.

Regarding `N[C@@H](Cn1ccc(=O)[nH]c1=O)C(=O)O` [willardiine], the “Affinity for GluR2o higher than for GluR3o” value in test [1] is reported as 10 fold.
For `N[C@@H](Cn1cc(F)c(=O)[nH]c1=O)C(=O)O` [fluorowillardiine], the “Affinity for GluR2o higher than for GluR3o” value in test [1] is listed as 10 fold.
With `NC(Cc1onc(O)c1Cl)C(=O)O` (stereo not shown) [Cl-HIBO, 4-chlorohomoibotenic acid], at GluR2o S1S2 domain, the “Difference in affinity (IC50) between GluR2 S1S2 and GluR3 S1S2” value was “ten-fold”. Moreover, in test [1] (homomeric receptors, same expression system (insect cells)), the “Affinity of homomeric GluR2 greater than GluR3” value is listed as “approximately 100 fold”.
